Laboratory results taken from PubChem BioAssay (NCI).
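Dose response: 5 concentrations. Exposure: 48 h. Format: 96-well plates. Endpoint: linear interpolation; highest concentration if not reached. TGI marks complete inhibition of growth.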

Columns and labels:
Assay in all cases: NCI-60 cell line screen, 48 h
786-0 renal = tested on: 786-0 renal
A498 renal = tested on: A498 renal
A549 NSCLC = tested on: A549 NSCLC
ACHN renal = tested on: ACHN renal
BT-549 breast = tested on: BT-549 breast
CAKI-1 renal = tested on: CAKI-1 renal
CCRF-CEM leukemia = tested on: CCRF-CEM leukemia
COLO 205 colon = tested on: COLO 205 colon
DU-145 prostate = tested on: DU-145 prostate
EKVX NSCLC = tested on: EKVX NSCLC
HCC-2998 colon = tested on: HCC-2998 colon
HCT-116 colon = tested on: HCT-116 colon
HCT-15 colon = tested on: HCT-15 colon
HL-60(TB) leukemia = tested on: HL-60(TB) leukemia
HOP-62 NSCLC = tested on: HOP-62 NSCLC
HOP-92 NSCLC = tested on: HOP-92 NSCLC
HS 578T breast = tested on: HS 578T breast
HT29 colon = tested on: HT29 colon
IGROV1 ovarian = tested on: IGROV1 ovarian
K-562 leukemia = tested on: K-562 leukemia
KM12 colon = tested on: KM12 colon
LOX IMVI melanoma = tested on: LOX IMVI melanoma
M14 melanoma = tested on: M14 melanoma
MALME-3M melanoma = tested on: MALME-3M melanoma
MCF7 breast = tested on: MCF7 breast
MDA-MB-231 breast = tested on: MDA-MB-231 breast
MDA-MB-435 = tested on: MDA-MB-435
MDA-N = tested on: MDA-N
MOLT-4 leukemia = tested on: MOLT-4 leukemia
NCI-H226 lung = tested on: NCI-H226 lung
NCI-H23 lung = tested on: NCI-H23 lung
NCI/ADR-RES ovarian = tested on: NCI/ADR-RES ovarian
OVCAR-3 ovarian = tested on: OVCAR-3 ovarian
OVCAR-4 ovarian = tested on: OVCAR-4 ovarian
OVCAR-5 ovarian = tested on: OVCAR-5 ovarian
OVCAR-8 ovarian = tested on: OVCAR-8 ovarian
PC-3 prostate = tested on: PC-3 prostate
RPMI-8226 leukemia = tested on: RPMI-8226 leukemia
RXF 393 renal = tested on: RXF 393 renal
SF-268 CNS = tested on: SF-268 CNS
SF-295 CNS = tested on: SF-295 CNS
SK-MEL-2 melanoma = tested on: SK-MEL-2 melanoma
SK-MEL-28 melanoma = tested on: SK-MEL-28 melanoma
SK-MEL-5 melanoma = tested on: SK-MEL-5 melanoma
SK-OV-3 ovarian = tested on: SK-OV-3 ovarian
SN12C renal = tested on: SN12C renal
SNB-19 CNS = tested on: SNB-19 CNS
SNB-75 CNS = tested on: SNB-75 CNS
SW-620 colon = tested on: SW-620 colon
T-47D breast = tested on: T-47D breast
TK-10 renal = tested on: TK-10 renal
U251 CNS = tested on: U251 CNS
UACC-257 melanoma = tested on: UACC-257 melanoma
UACC-62 melanoma = tested on: UACC-62 melanoma
UO-31 renal = tested on: UO-31 renal
NCI-H460 lung = tested on: NCI-H460 lung
NCI-H522 lung = tested on: NCI-H522 lung
SF-539 CNS = tested on: SF-539 CNS

Cc1ccsc1/C=N/Nc1ncccn1
TGI (786-0 renal): > 100 µM | TGI (A498 renal): > 100 µM | TGI (A549 NSCLC): > 100 µM | TGI (ACHN renal): > 100 µM | TGI (BT-549 breast): > 100 µM | TGI (CAKI-1 renal): > 100 µM | TGI (CCRF-CEM leukemia): > 100 µM | TGI (COLO 205 colon): > 100 µM | TGI (DU-145 prostate): > 100 µM | TGI (EKVX NSCLC): > 100 µM | TGI (HCC-2998 colon): > 100 µM | TGI (HCT-116 colon): > 100 µM | TGI (HCT-15 colon): > 100 µM | TGI (HL-60(TB) leukemia): > 100 µM | TGI (HOP-62 NSCLC): > 100 µM | TGI (HOP-92 NSCLC): > 100 µM | TGI (HS 578T breast): > 100 µM | TGI (HT29 colon): > 100 µM | TGI (IGROV1 ovarian): > 100 µM | TGI (K-562 leukemia): > 100 µM | TGI (KM12 colon): > 100 µM | TGI (LOX IMVI melanoma): > 100 µM | TGI (M14 melanoma): > 100 µM | TGI (MALME-3M melanoma): > 100 µM | TGI (MCF7 breast): > 100 µM | TGI (MDA-MB-231 breast): > 100 µM | TGI (MDA-MB-435): > 100 µM | TGI (MDA-N): > 100 µM | TGI (MOLT-4 leukemia): > 100 µM | TGI (NCI-H226 lung): > 100 µM | TGI (NCI-H23 lung): > 100 µM | TGI (NCI/ADR-RES ovarian): > 100 µM | TGI (OVCAR-3 ovarian): > 100 µM | TGI (OVCAR-4 ovarian): > 100 µM | TGI (OVCAR-5 ovarian): > 100 µM | TGI (OVCAR-8 ovarian): > 100 µM | TGI (PC-3 prostate): > 100 µM | TGI (RPMI-8226 leukemia): > 100 µM | TGI (RXF 393 renal): > 100 µM | TGI (SF-268 CNS): > 100 µM | TGI (SF-295 CNS): > 100 µM | TGI (SK-MEL-2 melanoma): > 100 µM | TGI (SK-MEL-28 melanoma): > 100 µM | TGI (SK-MEL-5 melanoma): > 100 µM | TGI (SK-OV-3 ovarian): > 100 µM | TGI (SN12C renal): > 100 µM | TGI (SNB-19 CNS): > 100 µM | TGI (SNB-75 CNS): > 100 µM | TGI (SW-620 colon): > 100 µM | TGI (T-47D breast): > 100 µM | TGI (TK-10 renal): > 100 µM | TGI (U251 CNS): > 100 µM | TGI (UACC-257 melanoma): > 100 µM | TGI (UACC-62 melanoma): > 100 µM | TGI (UO-31 renal): > 100 µM

O=C1C=C(Cl)C(=O)C(c2ccc(Cl)cc2)=C1
TGI (786-0 renal): 38.1 µM | TGI (A498 renal): 50.8 µM | TGI (A549 NSCLC): > 100 µM | TGI (ACHN renal): 30.3 µM | TGI (BT-549 breast): 46 µM | TGI (CAKI-1 renal): 35.1 µM | TGI (CCRF-CEM leukemia): 15.9 µM | TGI (COLO 205 colon): 31 µM | TGI (DU-145 prostate): 46.5 µM | TGI (EKVX NSCLC): 30.2 µM | TGI (HCC-2998 colon): 34.2 µM | TGI (HCT-116 colon): 38.1 µM | TGI (HCT-15 colon): 47.5 µM | TGI (HL-60(TB) leukemia): 42.8 µM | TGI (HOP-62 NSCLC): 44 µM | TGI (HOP-92 NSCLC): 35.7 µM | TGI (HS 578T breast): 74.9 µM | TGI (HT29 colon): 62.8 µM | TGI (IGROV1 ovarian): 30.8 µM | TGI (K-562 leukemia): 23.8 µM | TGI (KM12 colon): > 100 µM | TGI (LOX IMVI melanoma): 35.7 µM | TGI (M14 melanoma): 32.2 µM | TGI (MALME-3M melanoma): 39 µM | TGI (MCF7 breast): 41.6 µM | TGI (MDA-MB-231 breast): 36 µM | TGI (MDA-MB-435): 46.6 µM | TGI (MDA-N): 27.5 µM | TGI (MOLT-4 leukemia): 22.1 µM | TGI (NCI-H226 lung): 85.5 µM | TGI (NCI-H23 lung): 67.3 µM | TGI (NCI-H460 lung): > 100 µM | TGI (NCI-H522 lung): 47.4 µM | TGI (NCI/ADR-RES ovarian): 79 µM | TGI (OVCAR-3 ovarian): 34.3 µM | TGI (OVCAR-4 ovarian): 51.6 µM | TGI (OVCAR-5 ovarian): 39.6 µM | TGI (OVCAR-8 ovarian): 40.7 µM | TGI (PC-3 prostate): 29.3 µM | TGI (RPMI-8226 leukemia): 83.8 µM | TGI (RXF 393 renal): 34 µM | TGI (SF-268 CNS): 42.3 µM | TGI (SF-295 CNS): > 100 µM | TGI (SF-539 CNS): 32.4 µM | TGI (SK-MEL-2 melanoma): 44.3 µM | TGI (SK-MEL-28 melanoma): 43.4 µM | TGI (SK-MEL-5 melanoma): 34.3 µM | TGI (SK-OV-3 ovarian): > 100 µM | TGI (SN12C renal): 44.4 µM | TGI (SNB-19 CNS): > 100 µM | TGI (SNB-75 CNS): 59.8 µM | TGI (SW-620 colon): 89.5 µM | TGI (T-47D breast): 84.4 µM | TGI (TK-10 renal): 35.9 µM | TGI (U251 CNS): 30 µM | TGI (UACC-257 melanoma): 40.7 µM | TGI (UACC-62 melanoma): 42.4 µM | TGI (UO-31 renal): 28.5 µM

Cc1cn(C2CC(n3cc(Cn4cc(I)c(=O)[nH]c4=O)nn3)C(CO)O2)c(=O)[nH]c1=O (stereo not given)
TGI (A498 renal): > 100 µM | TGI (A549 NSCLC): > 100 µM | TGI (ACHN renal): > 100 µM | TGI (BT-549 breast): > 100 µM | TGI (CAKI-1 renal): > 100 µM | TGI (CCRF-CEM leukemia): > 100 µM | TGI (COLO 205 colon): > 100 µM | TGI (DU-145 prostate): > 100 µM | TGI (HCC-2998 colon): > 100 µM | TGI (HCT-116 colon): > 100 µM | TGI (HCT-15 colon): > 100 µM | TGI (HOP-62 NSCLC): > 100 µM | TGI (HOP-92 NSCLC): > 100 µM | TGI (HS 578T breast): > 100 µM | TGI (KM12 colon): > 100 µM | TGI (M14 melanoma): > 100 µM | TGI (MCF7 breast): > 100 µM | TGI (MDA-MB-231 breast): > 100 µM | TGI (MDA-MB-435): > 100 µM | TGI (MDA-N): > 100 µM | TGI (MOLT-4 leukemia): > 100 µM | TGI (NCI-H226 lung): > 100 µM | TGI (NCI-H23 lung): > 100 µM | TGI (NCI/ADR-RES ovarian): > 100 µM | TGI (OVCAR-3 ovarian): > 100 µM | TGI (OVCAR-4 ovarian): > 100 µM | TGI (OVCAR-5 ovarian): > 100 µM | TGI (OVCAR-8 ovarian): > 100 µM | TGI (PC-3 prostate): > 100 µM | TGI (RPMI-8226 leukemia): > 100 µM | TGI (RXF 393 renal): > 100 µM | TGI (SF-268 CNS): > 100 µM | TGI (SF-295 CNS): > 100 µM | TGI (SF-539 CNS): > 100 µM | TGI (SK-MEL-2 melanoma): > 100 µM | TGI (SK-MEL-28 melanoma): > 100 µM | TGI (SK-MEL-5 melanoma): > 100 µM | TGI (SK-OV-3 ovarian): > 100 µM | TGI (SN12C renal): > 100 µM | TGI (SNB-19 CNS): > 100 µM | TGI (SNB-75 CNS): > 100 µM | TGI (SW-620 colon): > 100 µM | TGI (T-47D breast): > 100 µM | TGI (TK-10 renal): > 100 µM | TGI (U251 CNS): > 100 µM | TGI (UACC-257 melanoma): > 100 µM | TGI (UACC-62 melanoma): > 100 µM
